Test results published in ChEMBL document CHEMBL3137667, “[Drug-induced liver injury; fourteenth updated edition of the bibliographic database of liver injuries and related drugs]” (Gastroenterol Clin Biol, 2004).

Assays:
[1] = human
[2] = human; remark: listed apart in the source
[3] = human, serum, 4383 h
[4] = human; remark: listed apart in the source
[5] = human; remark: listed apart in the source
[6] = human; remark: listed apart in the source
[7] = human; remark: listed apart in the source
[8] = human; remark: listed apart in the source
[9] = Highest frequency of acute liver toxicity observed during clinical trials, expressed as a percentage. [column '% AIGUE' in source]; details: human
[10] = human, serum
[11] = human; remark: listed apart in the source
[12] = human, serum; remark: listed apart in the source
[13] = Highest frequency of moderate liver toxicity observed during clinical trials, expressed as a percentage. [column '% BIOL' in source]; details: human
[14] = human; remark: listed apart in the source
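For Hepatotoxicity (association with vascular disease) in this document: count of indexed literature references reporting vascular liver injury in humans, e.g. peliosis hepatitis, hepatic veno-occlusive disease or Budd-Chiari syndrome.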
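For Hepatotoxicity (benign tumour) in this document: value is a count of indexed literature references citing a benign tumour confirmed by histopathology.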
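For Hepatotoxicity (choleostasis) in this document: human cholestatic liver injury, shown by histopathology or by peak ALT or AST elevation over alkaline phosphatase ratio below 2, value counts indexed literature reports.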
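For Hepatotoxicity (chronic liver disease) in this document: chronic liver injury confirmed by histopathology or persistently raised serum aminotransferase activity beyond 6 months, value given as the count of indexed literature references.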
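For Hepatotoxicity (cirrhosis) in this document: value is a count of indexed literature references reporting cirrhosis confirmed by histopathology.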
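For Hepatotoxicity (cytolytic) in this document: human cytolytic liver injury, shown by histopathology or by a ratio above 5 of peak ALT or AST elevation to alkaline phosphatase elevation, value counts indexed references.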
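For Hepatotoxicity (granulomatous hepatitis) in this document: value is a count of indexed literature references reporting granulomatous liver disease confirmed by histopathology.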
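For Hepatotoxicity (malignant tumour) in this document: malignant tumour confirmed by histopathology, value gives the count of indexed literature references reporting it.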
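For Hepatotoxicity (severe hepatitis) in this document: human clinical data: severe hepatitis, meaning potentially life-threatening liver failure or clinically observed cases, the value counts how many indexed literature references report it.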
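For Hepatotoxicity (steatosis) in this document: steatosis confirmed by histopathology, value is the count of indexed references.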

SMILES | Hepatotoxicity (granulomatous hepatitis) [1] | Hepatotoxicity (benign tumour) [2] | Hepatotoxicity (chronic liver disease) [3] | Hepatotoxicity (severe hepatitis) [4] | Hepatotoxicity (choleostasis) [5] | Hepatotoxicity (cirrhosis) [6] | Hepatotoxicity (steatosis) [7] | Hepatotoxicity (cytolytic) [8] | Hepatotoxicity (acute) [9] | Hepatotoxicity (acute) [10] | Hepatotoxicity (association with vascular disease) [11] | Hepatotoxicity (moderate) [12] | Hepatotoxicity (moderate) [13] | Hepatotoxicity (malignant tumour) [14] | Hepatotoxicity (severe hepatitis) ([4]; Liver) | Hepatotoxicity (acute) ([9]; Liver) | Hepatotoxicity (moderate) ([13]; Liver)
Cc1cc(C)cc(OCC2CNC(=O)O2)c1 (centres undefined) [METAXALONE] | 0 | 0 | 0 | 0 | 0 | 0 | 0 | 0 | 0% | 2 | 0 | 0 | 0% | 0 |  |  | 
COCCCN1CCC(NC(=O)c2cc(Cl)c(N)c3c2OCC3)CC1 [PRUCALOPRIDE] | 0 | 0 | 0 | 0 | 0 | 0 | 0 | 0 | 0% | 0 | 0 | 1 | 5.9% | 0 |  |  | 
C#C[C@]1(O)CC[C@H]2[C@@H]3CCC4=CC(=O)CCC4=C3C=C[C@@]21CC [GESTRINONE] | 0 | 0 | 0 | 0 | 0 | 0 | 0 | 0 | 0% | 0 | 0 | 1 | 0.8% | 0 |  |  | 
Clc1ccc(COC(Cn2ccnc2)c2ccc(Cl)cc2Cl)c(Cl)c1 (centres undefined) [MICONAZOLE] | 0 | 0 | 0 | 0 | 0 | 0 | 0 | 0 | 0% | 0 | 0 | 2 | 0% | 0 |  |  | 
Clc1cccc(C(c2ccc3[nH]cnc3c2)n2ccnc2)c1 (centres undefined) [LIAROZOLE] | 0 | 0 | 0 | 0 | 0 | 0 | 0 | 0 | 0% | 0 | 0 | 1 | 2.9% | 0 |  |  | 
O=C(O)C[C@H](O)C[C@H](O)/C=C/c1c(C2CC2)nc2ccccc2c1-c1ccc(F)cc1 [PITAVASTATIN] | 0 | 0 | 0 |  | 0 | 0 | 0 | 0 |  | 0 | 0 | 1 |  | 0 | 0 | 0% | 1.7%
O=C(CCOCCOCCOCCOCCC(=O)Nc1c(I)cc(I)c(C(=O)O)c1I)Nc1c(I)cc(I)c(C(=O)O)c1I [IODOXAMIC ACID] | 0 | 0 | 0 | 0 | 0 | 0 | 0 | 0 | 0% | 1 | 0 | 1 | 0% | 0 |  |  | 
CN1CCc2cccc3c2[C@H]1Cc1ccc(O)c(O)c1-3 [APOMORPHINE] | 0 | 0 | 0 | 0 | 0 | 0 | 0 | 0 | 0% | 0 | 0 | 1 | 0% | 0 |  |  | 
CCN1CCC[C@H]1CNC(=O)c1c(OC)ccc(Br)c1OC [REMOXIPRIDE] | 0 | 0 | 0 | 0 | 0 | 0 | 0 | 0 | 0% | 0 | 0 | 7 | 6.4% | 0 |  |  | 
CO/N=C(\C(=O)N[C@@H]1C(=O)N2C(C(=O)OCOC(=O)C(C)(C)C)=C(Cn3nnc(C)n3)CS[C@H]12)c1csc(N)n1 | 0 | 0 | 0 | 0 | 0 | 0 | 0 | 0 | 0% | 0 | 0 | 9 | 3.3% | 0 |  |  | 
CN1CCC[C@@H]1CCO[C@](C)(c1ccccc1)c1ccc(Cl)cc1 [CLEMASTINE] | 0 | 0 | 0 | 0 | 0 | 0 | 0 | 0 | 0% | 0 | 0 | 1 | 0.7% | 0 |  |  | 
CCC1=C(C[C@H]2NCCc3cc(OC)c(OC)cc32)C[C@H]2c3cc(OC)c(OC)cc3CCN2C1 [DEHYDROEMETINE] | 0 | 0 | 0 | 0 | 0 | 0 | 0 | 0 | 0% | 0 | 0 | 1 | 0% | 0 |  |  | 
O=C(O)c1nn(Cc2ccc(Cl)cc2Cl)c2ccccc12 [LONIDAMINE] | 0 | 0 | 0 | 0 | 0 | 0 | 0 | 0 | 0% | 0 | 0 | 4 | 6.4% | 0 |  |  | 
COc1ccc2cc(CCC(C)=O)ccc2c1 [NABUMETONE] | 0 | 0 | 0 | 0 | 0 | 0 | 0 | 1 | 0% | 1 | 0 | 8 | 4.5% | 0 |  |  | 
C[C@@H](O)[C@H]1C(=O)N2C(C(=O)[O-])=C(SC3Cn4cnc[n+]4C3)[C@H](C)[C@H]12 (some centres undefined) [BIAPENEM] | 0 | 0 | 0 | 0 | 0 | 0 | 0 | 0 | 0% | 0 | 0 | 56 | 40% | 0 |  |  | 
CC1(C)CC(=O)N(CCCCN2CCN(c3ncccn3)CC2)C(=O)C1 [GEPIRONE] | 0 | 0 | 0 | 0 | 0 | 0 | 0 | 0 | 0% | 0 | 0 | 1 | 3.3% | 0 |  |  | 
